Read-outs that look alike come from different tables or passages of the source. Blank lines part the entries; values can stand above or below the compound they belong to.
What was measured:
ERN1 = ERN1 (Homo sapiens, UniProt O75460); assay: SelectScreen kinase profiling; format: biochemical; settings: average of duplicate
EGFR (ErbB1) T790M = EGFR (ErbB1) T790M (Homo sapiens, UniProt P00533, T790M); assay: SelectScreen kinase profiling; format: biochemical; settings: average of duplicate
BTK = BTK (Homo sapiens, UniProt Q06187); assay: AssayQuant kinact/Ki profiling, PhosphoSens CSox-based kinetic assay; format: biochemical; design: purchased ThermoFisher / Life Technologies SelectScreen PV3363; settings: 0.6 nM enzyme, 1000 µM ATP, one step fit
FYN = FYN (Homo sapiens, UniProt P06241); assay: SelectScreen kinase profiling; format: biochemical; settings: average of duplicate
FLT3 = FLT3 (Homo sapiens, UniProt P36888); assay: SelectScreen kinase profiling; format: biochemical; settings: average of duplicate
ERBB2 (HER2) = ERBB2 (HER2) (Homo sapiens, UniProt P04626); assay: SelectScreen kinase profiling; format: biochemical; settings: average of duplicate
ZAK = ZAK (Homo sapiens, UniProt Q9NYL2); assay: SelectScreen kinase profiling; format: biochemical; settings: average of duplicate
[1] = tested on: ibrutinib’s top 50 targets; assay: Single-point kinase profiling, count of kinases inhibited; format: biochemical; settings: 1 μM, of 50 kinases
HCK = HCK (Homo sapiens, UniProt P08631); assay: SelectScreen kinase profiling / Z′-Lyte kinase assay
BMX = target: T1, BMX (Homo sapiens, UniProt P51813); assay: AssayQuant kinact/Ki profiling, PhosphoSens CSox-based kinetic assay; format: biochemical; design: purchased ThermoFisher / Life Technologies SelectScreen PV3371; settings: for kinact/KI / BMX kinact/Ki: 5.0 nM enzyme, 1000 µM ATP, two step fit; for kinact: fitted value, two step
T1 sequence (P51813 1-675): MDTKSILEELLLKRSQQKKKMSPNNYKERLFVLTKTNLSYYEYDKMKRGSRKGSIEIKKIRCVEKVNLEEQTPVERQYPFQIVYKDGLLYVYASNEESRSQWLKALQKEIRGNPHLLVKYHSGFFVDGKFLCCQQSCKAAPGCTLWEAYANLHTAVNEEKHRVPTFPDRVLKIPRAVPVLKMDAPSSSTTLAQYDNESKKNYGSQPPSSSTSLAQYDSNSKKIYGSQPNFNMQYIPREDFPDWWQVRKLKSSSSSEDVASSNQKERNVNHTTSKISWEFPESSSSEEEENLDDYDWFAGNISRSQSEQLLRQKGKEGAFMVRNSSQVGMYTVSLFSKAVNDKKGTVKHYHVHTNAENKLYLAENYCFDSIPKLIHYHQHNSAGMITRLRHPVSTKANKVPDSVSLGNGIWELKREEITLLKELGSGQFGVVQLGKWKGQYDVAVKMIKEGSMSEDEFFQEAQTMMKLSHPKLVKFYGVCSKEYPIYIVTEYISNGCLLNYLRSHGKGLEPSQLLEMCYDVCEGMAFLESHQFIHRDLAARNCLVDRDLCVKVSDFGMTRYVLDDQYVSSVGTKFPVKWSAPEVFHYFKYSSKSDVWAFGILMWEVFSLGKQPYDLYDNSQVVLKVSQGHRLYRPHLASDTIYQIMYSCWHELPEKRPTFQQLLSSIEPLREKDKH

ITK = target: T2, ITK (Homo sapiens, UniProt Q08881); assay: as above; settings: for kinact: read-out: ITK kinact; for kinact/KI: read-out: ITK kinact/KI
T2 sequence (Q08881 1-620): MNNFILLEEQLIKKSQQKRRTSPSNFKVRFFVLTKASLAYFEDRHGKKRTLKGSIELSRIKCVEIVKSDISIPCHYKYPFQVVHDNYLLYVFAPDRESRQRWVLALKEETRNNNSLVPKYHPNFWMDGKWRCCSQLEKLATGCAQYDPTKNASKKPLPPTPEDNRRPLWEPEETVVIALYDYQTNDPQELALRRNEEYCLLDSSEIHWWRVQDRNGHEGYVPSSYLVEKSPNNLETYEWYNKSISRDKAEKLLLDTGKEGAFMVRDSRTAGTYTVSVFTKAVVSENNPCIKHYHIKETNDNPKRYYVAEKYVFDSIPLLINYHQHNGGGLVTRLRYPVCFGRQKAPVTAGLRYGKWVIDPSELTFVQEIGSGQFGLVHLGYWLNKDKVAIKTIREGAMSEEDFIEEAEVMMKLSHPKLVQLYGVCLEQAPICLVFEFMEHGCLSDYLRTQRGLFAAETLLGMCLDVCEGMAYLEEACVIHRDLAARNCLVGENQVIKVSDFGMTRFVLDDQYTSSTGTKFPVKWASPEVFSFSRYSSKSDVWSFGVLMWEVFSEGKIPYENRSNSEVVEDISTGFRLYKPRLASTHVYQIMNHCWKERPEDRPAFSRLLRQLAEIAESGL

RET = RET (Homo sapiens, UniProt P07949); assay: SelectScreen kinase profiling; format: biochemical; settings: average of duplicate
FLT4 (VEGFR3) = FLT4 (VEGFR3) (Homo sapiens, UniProt P35916); assay: SelectScreen kinase profiling; format: biochemical; settings: average of duplicate
TNK2 (ACK) = TNK2 (ACK) (Homo sapiens, UniProt Q07912); assay: SelectScreen kinase profiling; format: biochemical; settings: average of duplicate

Sequence of HCK (P08631 whole entry): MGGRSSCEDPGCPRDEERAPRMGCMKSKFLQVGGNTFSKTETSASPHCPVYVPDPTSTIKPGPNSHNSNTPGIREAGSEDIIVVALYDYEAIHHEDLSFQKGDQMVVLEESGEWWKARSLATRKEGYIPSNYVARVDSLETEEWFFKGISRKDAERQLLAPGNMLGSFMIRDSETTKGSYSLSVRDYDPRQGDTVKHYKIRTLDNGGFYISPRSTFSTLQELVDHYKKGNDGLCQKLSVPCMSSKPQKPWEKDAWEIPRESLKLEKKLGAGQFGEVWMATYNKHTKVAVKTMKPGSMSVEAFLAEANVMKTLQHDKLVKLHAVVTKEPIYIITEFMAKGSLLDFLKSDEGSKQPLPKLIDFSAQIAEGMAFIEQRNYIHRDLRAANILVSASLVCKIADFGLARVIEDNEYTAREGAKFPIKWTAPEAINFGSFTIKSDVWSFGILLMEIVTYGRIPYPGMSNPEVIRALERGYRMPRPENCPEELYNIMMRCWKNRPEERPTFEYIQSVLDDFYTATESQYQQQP
Sequence of ERN1 (O75460 19-977): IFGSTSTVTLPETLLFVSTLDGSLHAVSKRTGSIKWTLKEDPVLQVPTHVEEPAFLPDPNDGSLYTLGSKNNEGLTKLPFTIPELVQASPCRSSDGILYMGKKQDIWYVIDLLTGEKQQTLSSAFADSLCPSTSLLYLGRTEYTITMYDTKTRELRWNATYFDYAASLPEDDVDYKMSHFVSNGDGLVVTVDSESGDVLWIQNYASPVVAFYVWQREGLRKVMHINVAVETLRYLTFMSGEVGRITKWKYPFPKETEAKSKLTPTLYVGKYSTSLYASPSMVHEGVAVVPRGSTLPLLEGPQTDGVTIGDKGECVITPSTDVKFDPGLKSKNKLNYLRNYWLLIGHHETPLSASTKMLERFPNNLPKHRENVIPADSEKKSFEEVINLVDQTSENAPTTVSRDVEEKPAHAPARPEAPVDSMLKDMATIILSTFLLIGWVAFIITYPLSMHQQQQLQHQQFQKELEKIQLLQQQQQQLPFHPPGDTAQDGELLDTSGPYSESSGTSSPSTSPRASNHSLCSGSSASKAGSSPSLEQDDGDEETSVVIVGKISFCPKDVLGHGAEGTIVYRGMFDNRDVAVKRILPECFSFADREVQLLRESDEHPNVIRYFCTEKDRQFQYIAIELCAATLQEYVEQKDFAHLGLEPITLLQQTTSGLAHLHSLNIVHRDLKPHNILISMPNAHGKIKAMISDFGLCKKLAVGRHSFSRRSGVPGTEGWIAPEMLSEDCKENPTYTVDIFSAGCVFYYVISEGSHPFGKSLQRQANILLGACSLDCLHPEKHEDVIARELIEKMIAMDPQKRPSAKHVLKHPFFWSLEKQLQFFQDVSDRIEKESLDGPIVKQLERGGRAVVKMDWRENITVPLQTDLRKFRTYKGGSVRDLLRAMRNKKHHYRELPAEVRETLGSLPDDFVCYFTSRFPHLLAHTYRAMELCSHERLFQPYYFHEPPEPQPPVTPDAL
Sequence of ERBB2 (HER2) (P04626 23-1255): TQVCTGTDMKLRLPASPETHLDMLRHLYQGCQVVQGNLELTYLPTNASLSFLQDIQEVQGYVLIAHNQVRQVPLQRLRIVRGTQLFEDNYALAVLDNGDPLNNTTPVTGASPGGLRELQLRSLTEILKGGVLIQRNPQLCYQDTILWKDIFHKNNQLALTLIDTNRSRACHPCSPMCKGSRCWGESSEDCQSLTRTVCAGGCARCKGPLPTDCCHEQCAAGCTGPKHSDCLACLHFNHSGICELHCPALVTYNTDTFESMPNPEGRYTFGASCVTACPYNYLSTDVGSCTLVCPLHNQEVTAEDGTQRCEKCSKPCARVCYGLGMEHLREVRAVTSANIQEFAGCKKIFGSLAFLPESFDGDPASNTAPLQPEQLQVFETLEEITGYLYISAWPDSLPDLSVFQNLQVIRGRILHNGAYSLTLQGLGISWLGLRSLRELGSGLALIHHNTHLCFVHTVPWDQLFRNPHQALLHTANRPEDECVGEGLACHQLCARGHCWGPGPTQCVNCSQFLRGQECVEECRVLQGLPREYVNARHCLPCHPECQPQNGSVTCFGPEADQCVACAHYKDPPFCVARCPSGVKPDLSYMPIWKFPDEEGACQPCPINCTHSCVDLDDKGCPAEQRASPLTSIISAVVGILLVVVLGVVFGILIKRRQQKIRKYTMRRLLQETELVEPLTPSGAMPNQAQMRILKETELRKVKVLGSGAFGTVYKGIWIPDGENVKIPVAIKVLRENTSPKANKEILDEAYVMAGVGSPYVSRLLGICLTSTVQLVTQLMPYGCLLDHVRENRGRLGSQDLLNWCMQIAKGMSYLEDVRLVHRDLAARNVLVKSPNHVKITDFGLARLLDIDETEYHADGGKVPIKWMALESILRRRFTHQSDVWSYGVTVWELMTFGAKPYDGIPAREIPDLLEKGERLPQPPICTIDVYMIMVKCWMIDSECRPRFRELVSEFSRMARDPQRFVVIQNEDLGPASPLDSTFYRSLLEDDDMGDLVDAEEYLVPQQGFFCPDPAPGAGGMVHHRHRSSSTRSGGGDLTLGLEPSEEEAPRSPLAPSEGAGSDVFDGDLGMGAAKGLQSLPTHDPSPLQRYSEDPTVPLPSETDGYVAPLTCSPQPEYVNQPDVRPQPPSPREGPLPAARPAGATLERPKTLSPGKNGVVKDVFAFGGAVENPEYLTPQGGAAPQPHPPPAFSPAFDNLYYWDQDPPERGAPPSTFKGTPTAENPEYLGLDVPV
Sequence of BTK (Q06187 whole entry): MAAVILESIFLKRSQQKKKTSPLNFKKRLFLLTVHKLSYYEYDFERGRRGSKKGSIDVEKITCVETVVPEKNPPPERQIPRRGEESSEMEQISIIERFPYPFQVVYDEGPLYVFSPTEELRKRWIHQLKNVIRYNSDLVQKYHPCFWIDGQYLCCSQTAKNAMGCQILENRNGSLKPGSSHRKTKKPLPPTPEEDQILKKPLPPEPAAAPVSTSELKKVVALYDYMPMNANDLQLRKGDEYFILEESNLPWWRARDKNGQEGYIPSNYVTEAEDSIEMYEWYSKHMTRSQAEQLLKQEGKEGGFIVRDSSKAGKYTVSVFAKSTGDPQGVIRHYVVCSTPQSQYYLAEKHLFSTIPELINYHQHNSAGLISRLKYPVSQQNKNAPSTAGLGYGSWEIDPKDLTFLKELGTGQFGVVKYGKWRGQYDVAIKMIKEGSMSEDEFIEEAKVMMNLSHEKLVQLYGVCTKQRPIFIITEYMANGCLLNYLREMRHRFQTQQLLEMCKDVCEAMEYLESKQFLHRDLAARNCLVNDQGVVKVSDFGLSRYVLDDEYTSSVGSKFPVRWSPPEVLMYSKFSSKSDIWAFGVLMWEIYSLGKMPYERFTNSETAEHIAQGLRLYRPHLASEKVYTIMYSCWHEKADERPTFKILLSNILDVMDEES
Sequence of EGFR (ErbB1) T790M (P00533 25-1210 T790M): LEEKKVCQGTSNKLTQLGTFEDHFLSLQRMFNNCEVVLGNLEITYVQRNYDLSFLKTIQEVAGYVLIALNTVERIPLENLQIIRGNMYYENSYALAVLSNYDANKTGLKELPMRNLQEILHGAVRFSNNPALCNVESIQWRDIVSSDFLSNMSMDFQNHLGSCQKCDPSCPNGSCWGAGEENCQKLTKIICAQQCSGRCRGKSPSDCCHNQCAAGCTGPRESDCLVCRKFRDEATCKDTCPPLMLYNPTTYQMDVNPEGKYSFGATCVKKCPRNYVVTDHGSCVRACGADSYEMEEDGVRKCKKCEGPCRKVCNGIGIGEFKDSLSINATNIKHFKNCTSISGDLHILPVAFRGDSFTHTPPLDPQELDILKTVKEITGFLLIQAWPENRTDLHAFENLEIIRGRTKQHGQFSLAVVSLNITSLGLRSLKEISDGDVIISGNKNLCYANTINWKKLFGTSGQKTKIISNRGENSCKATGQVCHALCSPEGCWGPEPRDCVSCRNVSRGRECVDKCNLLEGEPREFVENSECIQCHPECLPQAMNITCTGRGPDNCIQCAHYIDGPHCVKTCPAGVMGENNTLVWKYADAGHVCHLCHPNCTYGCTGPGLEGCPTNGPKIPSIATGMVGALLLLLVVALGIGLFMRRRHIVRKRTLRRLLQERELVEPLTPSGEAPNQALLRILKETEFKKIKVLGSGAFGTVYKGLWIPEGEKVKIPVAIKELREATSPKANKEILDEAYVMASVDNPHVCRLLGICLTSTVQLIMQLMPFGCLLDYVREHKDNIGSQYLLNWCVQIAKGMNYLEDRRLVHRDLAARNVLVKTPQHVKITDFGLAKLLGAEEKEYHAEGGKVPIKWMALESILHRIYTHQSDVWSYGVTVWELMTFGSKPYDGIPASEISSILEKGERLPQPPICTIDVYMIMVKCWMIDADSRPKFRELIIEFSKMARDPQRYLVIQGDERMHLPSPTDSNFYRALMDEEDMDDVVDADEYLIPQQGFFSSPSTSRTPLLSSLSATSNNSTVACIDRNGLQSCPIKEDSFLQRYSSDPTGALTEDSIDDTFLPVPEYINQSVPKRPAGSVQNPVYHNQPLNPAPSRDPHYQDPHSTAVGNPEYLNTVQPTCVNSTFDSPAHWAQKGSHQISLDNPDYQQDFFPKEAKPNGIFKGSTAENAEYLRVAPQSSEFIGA
Sequence of FYN (P06241 whole entry): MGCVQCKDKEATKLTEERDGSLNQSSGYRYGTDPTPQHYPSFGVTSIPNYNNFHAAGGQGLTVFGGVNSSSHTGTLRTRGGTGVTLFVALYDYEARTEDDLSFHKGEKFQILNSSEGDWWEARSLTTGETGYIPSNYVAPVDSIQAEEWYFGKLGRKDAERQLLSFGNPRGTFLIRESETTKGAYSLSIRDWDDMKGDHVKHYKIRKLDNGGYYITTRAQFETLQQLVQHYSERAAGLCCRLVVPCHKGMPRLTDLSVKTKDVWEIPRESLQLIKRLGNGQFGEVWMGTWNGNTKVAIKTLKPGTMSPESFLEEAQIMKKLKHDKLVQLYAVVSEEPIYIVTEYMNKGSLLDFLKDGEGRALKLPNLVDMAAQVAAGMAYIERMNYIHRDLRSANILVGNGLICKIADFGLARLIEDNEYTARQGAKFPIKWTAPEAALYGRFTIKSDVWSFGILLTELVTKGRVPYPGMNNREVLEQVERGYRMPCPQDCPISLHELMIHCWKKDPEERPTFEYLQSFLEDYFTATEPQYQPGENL

inhibition at 1 µM (ERN1): 2%
inhibition at 1 µM (EGFR (ErbB1) T790M): 6%
kinact/KI (BTK): 31000 M⁻¹ s⁻¹
BTK kinact/Ki (BTK; listed as Dimethyl Analog): 31,600 M^-1S^-1
inhibition at 1 µM (FYN): 19%
inhibition at 1 µM (FLT3): 13%
inhibition at 1 µM (ERBB2 (HER2)): 2%
inhibition at 1 µM (ZAK): 0%
number of kinases inhibited to 10% of control [1]: 6
number of kinases inhibited to 50% of control [1]: 9
inhibition at 1 µM (HCK): 19%
HCK, BTK/Kinase (HCK; BTK selectivity from IC50 values): 180 x
IC50 (HCK; HCK IC50, Z′-Lyte, [ATP] Km app, 1 h incubation, duplicate): 2310 nM
Hillslope (HCK; HCK IC50 curve): 1.00
inhibition at 0.000495 µM (HCK; read-out: % Inhibition Point 1): 10%
inhibition at 0.00152 µM (HCK; read-out: % Inhibition Point 1): 9%
inhibition at 0.00457 µM (HCK; read-out: % Inhibition Point 1): 10%
inhibition at 0.0137 µM (HCK; read-out: % Inhibition Point 1): 6%
inhibition at 0.0412 µM (HCK; read-out: % Inhibition Point 1): 9%
inhibition at 0.123 µM (HCK; read-out: % Inhibition Point 1): 10%
inhibition at 0.37 µM (HCK; read-out: % Inhibition Point 1): 19%
inhibition at 1.11 µM (HCK; read-out: % Inhibition Point 1): 32%
inhibition at 3.33 µM (HCK; read-out: % Inhibition Point 1): 48%
inhibition at 10 µM (HCK; read-out: % Inhibition Point 1): 62%
inhibition at 0.000495 µM (HCK; read-out: % Inhibition Point 2): 7%
inhibition at 0.00152 µM (HCK; read-out: % Inhibition Point 2): 7%
inhibition at 0.00457 µM (HCK; read-out: % Inhibition Point 2): 5%
inhibition at 0.0137 µM (HCK; read-out: % Inhibition Point 2): 10%
inhibition at 0.0412 µM (HCK; read-out: % Inhibition Point 2): 8%
inhibition at 0.123 µM (HCK; read-out: % Inhibition Point 2): 15%
inhibition at 0.37 µM (HCK; read-out: % Inhibition Point 2): 15%
inhibition at 1.11 µM (HCK; read-out: % Inhibition Point 2): 29%
inhibition at 3.33 µM (HCK; read-out: % Inhibition Point 2): 49%
inhibition at 10 µM (HCK; read-out: % Inhibition Point 2): 65%
kinact/KI (BMX): 65000 M⁻¹ s⁻¹
BMX kinact/Ki (BMX; listed as Dimethyl Analog): 64,800 M^-1S^-1
kinact (BMX): 0.0053 s⁻¹
kinact (ITK): 0.0005 s⁻¹
kinact/KI (ITK): 2800 M⁻¹ s⁻¹
inhibition at 1 µM (RET): 5%
inhibition at 1 µM (FLT4 (VEGFR3)): 5%
inhibition at 1 µM (TNK2 (ACK)): 4%
SMILES: C=CC(=O)N1CCCC(n2nc(-c3c(C)cc(Oc4ccccc4)cc3C)c3c(N)ncnc32)C1 (stereo in doubt) [Compound 3]

inhibition at 1 µM (ERN1): 2%
inhibition at 1 µM (ERBB2 (HER2)): 71%
kinact/KI (BMX): 81000 M⁻¹ s⁻¹
BMX kinact/Ki (BMX; listed as Monomethyl Analog): 80,800 M^-1S^-1
kinact (BMX): 0.0065 s⁻¹
kinact (ITK): 0.0001 s⁻¹
kinact/KI (ITK): 4120 M⁻¹ s⁻¹
SMILES: C=CC(=O)N1CCC[C@@H](n2nc(-c3ccc(Oc4ccccc4)cc3C)c3c(N)ncnc32)C1 [Compound 2, (R)-1-(3-(4-amino-3-(2-methyl-4-phenoxyphenyl)-1H-pyrazolo[3,4-d]pyrimidin-1-yl)piperidin-1-yl)prop-2-en-1-one]

— PMC10009787 (ACS Medicinal Chemistry Letters, 2023)
